{"source": "patent US20030228343A1", "about": "“Method for controlling a population of social insects using 1-arylpyrazoles or 1-heteroarylpyrazoles” (priority 1995, published 2003)", "key": {"[1]": {"system": "Blatella Germanica cockroaches", "assay": "Bait pellet test on cockroaches in boxes, with later introduction of healthy cockroaches", "type": "in vivo", "conditions": "2.7 g bait pellet with 1.35 mg active, bait removed after 8 hours and 15 new healthy cockroaches added", "procedure": "Tests are carried out on Blatella Germanica cockroaches in boxes 36×24×14 cm in size. These boxes comprise a source of water, a shelter consisting of piled pieces of cardboard, and additional food consisting of biscuit pieces.\n15 cockroaches are introduced into the box without bait.\nAfter 24 hours, a 2.7 g pellet of bait with 1.35 mg of product of formula (I) is introduced into the box.\nAfter a further 8 hours, the bait and the additional food are removed and 15 new healthy cockroaches are introduced."}, "[2]": {"system": "Lasius niger", "assay": "Honey bait placed near an active anthill, population destruction", "type": "in vivo", "conditions": "10 g of a 0.05% dispersion in honey", "from_the_text": "A watch glass containing 10 g of a 0.05% dispersion of compound A in honey is placed 20 cm from the entrance to an active anthill. The ants are of the species Lasius niger, for which the fraction of workers whose function is to collect food is in the region of 10% of the total population. The total population is estimated by a count carried out on an untreated anthill, referred to as the control, containing 10,000 individuals.\nDuring the first 2 days, it is observed that the ants head in a column from the anthill to the watch glass, stop to take up the dispersion and then return to the anthill.\nAn update on the latter is then obtained by excavation."}}}
{"compound": "N#Cc1nn(-c2c(Cl)cc(C(F)(F)F)cc2Cl)c(N)c1[S+]([O-])C(F)(F)F", "note": "(centres unmarked) [compound A, 5-amino-3-cyano-I-[2,6-dichloro4-(trifluoromethyl)phenyl]-4[(trifluoromethyl)sulfinyl]-IH-pyrazole]", "values": [{"measurement": "cockroaches dead", "setting": "[1]; 64 hours after introduction of the bait", "value": 98.6, "unit": "%"}, {"measurement": "cockroaches dead", "setting": "[1]; after 88 hours", "value": 100, "unit": "%"}, {"measurement": "destruction rate", "setting": "[2]; 20 cm from anthill entrance, excavation after 15 days, total population about 10,000 individuals", "value": "greater than 99%"}, {"measurement": "surface activity around the anthill", "setting": "[2]; after 15 days", "value": "no further surface activity"}, {"measurement": "destruction of larvae in the anthill", "setting": "[2]; excavation after 15 days", "value": "all the larvae have been destroyed"}]}
